Structures can show the parent of a compound that is named as a salt. Where two headings read alike, the source gives them in different places.
Tests used:
NaV1.6 = NaV1.6 (Homo sapiens (Human), UniProt Q9UQD0); test: Sodium Influx Assay (Flux), NaV1.6; assay type: cell-based; settings: Trex HEK293 cells, ANG2 dye, inactivated state;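 further: Tetracycline-induced cells, compounds applied for one hour at room temperature with modulators holding channels open, IC50 from percent inhibition of sodium influx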
NaV1.1 = NaV1.1 (Homo sapiens (Human), UniProt P35498); test: Sodium Influx Assay (Flux), NaV1.1; assay type: cell-based; settings: Trex HEK293 cells, ANG2 dye, inactivated state;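 further: channels co-expressed with human β1 subunit and held open by modulators, cells exposed to compounds for one hour at room temperature, IC50 from percent inhibition of influx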
NaV1.5 = NaV1.5 (Homo sapiens (Human), UniProt Q14524); test: Sodium Influx Assay (Flux), NaV1.5
[1] = read-out: Flux NaV1.5 IC50, Trex HEK293 cells, ANG2 dye, inactivated state

Chain of NaV1.5 (Q14524 other isoform, or with tags, fused parts or gaps): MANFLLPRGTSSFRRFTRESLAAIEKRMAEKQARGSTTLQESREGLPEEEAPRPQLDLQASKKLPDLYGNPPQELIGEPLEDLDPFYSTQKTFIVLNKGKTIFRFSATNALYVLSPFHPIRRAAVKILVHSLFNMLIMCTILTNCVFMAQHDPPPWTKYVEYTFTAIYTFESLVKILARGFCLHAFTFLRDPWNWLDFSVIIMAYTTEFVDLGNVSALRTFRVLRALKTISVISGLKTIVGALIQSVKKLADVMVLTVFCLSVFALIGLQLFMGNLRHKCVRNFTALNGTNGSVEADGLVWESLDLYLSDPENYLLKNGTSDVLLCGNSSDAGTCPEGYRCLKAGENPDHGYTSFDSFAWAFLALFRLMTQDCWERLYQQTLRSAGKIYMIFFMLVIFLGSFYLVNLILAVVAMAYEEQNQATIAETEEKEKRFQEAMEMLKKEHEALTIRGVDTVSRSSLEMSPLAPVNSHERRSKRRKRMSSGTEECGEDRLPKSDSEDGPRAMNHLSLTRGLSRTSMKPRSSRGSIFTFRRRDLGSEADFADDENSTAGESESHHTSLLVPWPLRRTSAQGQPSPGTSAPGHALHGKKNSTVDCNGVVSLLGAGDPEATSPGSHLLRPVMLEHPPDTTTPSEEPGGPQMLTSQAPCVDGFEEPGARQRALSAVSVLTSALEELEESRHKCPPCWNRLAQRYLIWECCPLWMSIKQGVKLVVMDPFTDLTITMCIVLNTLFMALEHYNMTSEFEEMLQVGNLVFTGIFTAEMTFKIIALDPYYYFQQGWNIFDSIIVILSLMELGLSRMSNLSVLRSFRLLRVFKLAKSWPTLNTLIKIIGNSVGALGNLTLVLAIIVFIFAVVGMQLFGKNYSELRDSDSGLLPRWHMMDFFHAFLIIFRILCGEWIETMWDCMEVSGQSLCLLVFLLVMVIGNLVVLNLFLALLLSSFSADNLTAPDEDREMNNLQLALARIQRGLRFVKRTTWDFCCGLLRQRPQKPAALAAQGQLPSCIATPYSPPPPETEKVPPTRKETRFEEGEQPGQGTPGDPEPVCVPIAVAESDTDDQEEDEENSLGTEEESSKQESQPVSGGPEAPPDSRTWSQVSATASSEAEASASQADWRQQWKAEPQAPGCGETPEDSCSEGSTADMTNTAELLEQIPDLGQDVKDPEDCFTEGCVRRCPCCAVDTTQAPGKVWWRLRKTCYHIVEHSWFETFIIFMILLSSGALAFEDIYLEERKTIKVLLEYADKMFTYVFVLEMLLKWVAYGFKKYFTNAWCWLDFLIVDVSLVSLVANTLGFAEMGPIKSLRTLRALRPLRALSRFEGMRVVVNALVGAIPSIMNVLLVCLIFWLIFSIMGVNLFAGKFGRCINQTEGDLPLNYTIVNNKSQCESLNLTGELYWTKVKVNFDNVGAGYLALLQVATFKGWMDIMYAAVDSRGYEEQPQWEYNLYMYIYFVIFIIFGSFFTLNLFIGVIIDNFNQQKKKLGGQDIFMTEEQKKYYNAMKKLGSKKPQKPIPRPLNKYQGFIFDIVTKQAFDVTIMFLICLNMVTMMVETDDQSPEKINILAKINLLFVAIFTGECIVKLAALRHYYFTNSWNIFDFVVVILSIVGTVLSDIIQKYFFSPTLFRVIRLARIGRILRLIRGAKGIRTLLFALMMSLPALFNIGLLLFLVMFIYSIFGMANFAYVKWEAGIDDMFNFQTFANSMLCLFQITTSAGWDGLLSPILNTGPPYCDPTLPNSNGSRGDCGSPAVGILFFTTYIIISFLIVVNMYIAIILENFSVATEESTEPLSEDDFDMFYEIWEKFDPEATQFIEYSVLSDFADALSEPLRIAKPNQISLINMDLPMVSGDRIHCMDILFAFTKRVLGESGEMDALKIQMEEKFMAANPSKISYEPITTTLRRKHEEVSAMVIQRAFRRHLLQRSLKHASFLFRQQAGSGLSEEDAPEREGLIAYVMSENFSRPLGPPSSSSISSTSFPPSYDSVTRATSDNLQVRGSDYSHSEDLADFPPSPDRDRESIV

| Compound | IC50 (NaV1.6) [µM] | IC50 (NaV1.1) [µM] | IC50 (NaV1.5; [1]) [µM] | IC50 (NaV1.5) [µM] |
| --- | --- | --- | --- | --- |
| O=S(=O)(Nc1nccs1)c1cc(Cl)c(N[C@@H]2CCCc3ccccc32)cc1F [Example 102, (R)-5-chloro-2-fluoro-4-((1,2,3,4-tetrahydronaphthalen-1-yl)amino)-N-(thiazol-2-yl)benzenesulfonamide] | 1.67 | 0.941 | 5.97 |  |
| C[C@H](Oc1cc(F)c(S(=O)(=O)Nc2nccs2)cc1Cl)c1ccc(Cl)c(Cl)c1 [Example 108, (S)-5-chloro-4-(1-(3,4-dichlorophenyl)ethoxy)-2-fluoro-N-(thiazol-2-yl)benzenesulfonamide] | 14.5 | 21.1 | 22.4 |  |
| CC(C)C[C@@H](Nc1cc(F)c(S(=O)(=O)Nc2nccs2)cc1Cl)c1ccccc1 [Example 110, (R)-5-chloro-2-fluoro-4-((3-methyl-1-phenylbutyl)amino)-N-(thiazol-2-yl)benzenesulfonamide] | 1.03 | 3.84 | 3.15 |  |
| C[C@H](Oc1cc(F)c(S(=O)(=O)Nc2cscn2)cc1Cl)c1cccc(F)c1 [Example 118, (S)-5-chloro-2-fluoro-4-(1-(3-fluorophenyl)ethoxy)-N-(thiazol-4-yl)benzenesulfonamide] | 3.18 | 15.9 | 7.5 |  |
| C[C@@H](Oc1cc(F)c(S(=O)(=O)Nc2nccs2)cc1Cl)c1ccccc1F [Example 121, (R)-5-chloro-2-fluoro-4-(1-(2-fluorophenyl)ethoxy)-N-(thiazol-2-yl)benzenesulfonamide] | 2.32 | 3.38 | 2.15 |  |
| C[C@H](Oc1cc(F)c(S(=O)(=O)Nc2cscn2)cc1Cl)c1cc(Cl)ccc1F [Example 124, (S)-5-chloro-4-(1-(5-chloro-2-fluorophenyl)ethoxy)-2-fluoro-N-(thiazol-4-yl)benzenesulfonamide] | 1.84 | 15.9 | 1.87 |  |
| C[C@H](Sc1cc(F)c(S(=O)(=O)Nc2nccs2)cc1Cl)c1ccccc1 [Example 125, (S)-5-chloro-2-fluoro-4-((1-phenylethyl)thio)-N-(thiazol-2-yl)benzenesulfonamide] | 1.73 | 3.26 | 3.35 |  |
| O=S(=O)(Nc1cscn1)c1cc(Cl)c(NCc2c(F)cccc2CN2CC3(CCC3)C2)cc1F [Example 128, 4-((2-((2-azaspiro[3.3]heptan-2-yl)methyl)-6-fluorobenzyl)amino)-5-chloro-2-fluoro-N-(thiazol-4-yl)benzenesulfonamide] | 0.208 | 5.37 |  | 6.72 |
| O=S(=O)(Nc1cscn1)c1cc(Cl)c(NCc2ccc(F)cc2CN2CCC2)cc1F [Example 132, 4-((2-(azetidin-1-ylmethyl)-4-fluorobenzyl)amino)-5-chloro-2-fluoro-N-(thiazol-4-yl)benzenesulfonamide] | 5.11 | 7.87 | 24.7 |  |
| C[C@H](Nc1cc(F)c(S(=O)(=O)Nc2cscn2)cc1Cl)c1cc(C2CC2)ccc1F [Example 146, (S)-5-chloro-4-((1-(5-cyclopropyl-2-fluorophenyl)ethyl)amino)-2-fluoro-N-(thiazol-4-yl)benzenesulfonamide] | 4.12 | 5.57 | 9.84 |  |
| Cc1ccc(F)cc1CNc1cc(F)c(S(=O)(=O)Nc2cscn2)cc1Cl [Example 147, 5-chloro-2-fluoro-4-((5-fluoro-2-methylbenzyl)amino)-N-(thiazol-4-yl)benzenesulfonamide] | 3.31 | 3.43 | 2.72 |  |
| C[C@H](Nc1ccc(S(=O)(=O)Nc2cscn2)c(F)c1Cl)c1c(F)cccc1Cl [Example 148, (S)-3-chloro-4-((1-(2-chloro-6-fluorophenyl)ethyl)amino)-2-fluoro-N-(thiazol-4-yl)benzenesulfonamide] | 1.25 | 2.95 | 4.84 |  |
| O=S(=O)(Nc1cscn1)c1cc(Cl)c(OCc2c(F)ccc(F)c2CN2CCC2)cc1F [Example 150, 4-((2-(azetidin-1-ylmethyl)-3,6-difluorobenzyl)oxy)-5-chloro-2-fluoro-N-(thiazol-4-yl)benzenesulfonamide] | 2.82 | 30 | 8.66 |  |
| CN1CCN(Cc2cccc(F)c2CNc2cc(F)c(S(=O)(=O)Nc3cscn3)c(F)c2)CC1 [Example 151, 2,6-difluoro-4-((2-fluoro-6-((4-methylpiperazin-1-yl)methyl)-benzyl)amino)-N-(thiazol-4-yl)benzenesulfonamide formate] | 2.1 | 20.5 | 30 |  |
| O=S(=O)(Nc1cscn1)c1c(F)cc(NCc2c(F)cccc2CN2CCC3(CCO3)C2)cc1F (stereo not drawn) [Example 155, 4-((2-((1-oxa-6-azaspiro[3.4]octan-6-yl)methyl)-6-fluorobenzyl)amino)-2,6-difluoro-N-(thiazol-4-yl)benzenesulfonamide formate] | 0.25 | 30 | 30 |  |
| O=S(=O)(Nc1cscn1)c1c(F)cc(NCc2c(F)cccc2CN2CCC23COC3)cc1F [Example 157, 4-((2-((6-oxa-1-azaspiro[3.3]heptan-1-yl)methyl)-6-fluorobenzyl)amino)-2,6-difluoro-N-(thiazol-4-yl)benzenesulfonamide formate] | 2.36 | 30 | 30 |  |
| O=S(=O)(Nc1cscn1)c1c(F)cc(NCc2c(F)cccc2CN2CCC3(CCC3)C2)cc1F [Example 159, 4-((2-((6-azaspiro[3.4]octan-6-yl)methyl)-6-fluorobenzyl)amino)-2,6-difluoro-N-(thiazol-4-yl)benzenesulfonamide formate] | 0.153 | 9.21 |  | 11.8 |
| O=S(=O)(Nc1cscn1)c1c(F)cc(NCc2c(F)cccc2CN2CC3(C2)CC(F)(F)C3)cc1F [Example 160, 4-((2-((6,6-difluoro-2-azaspiro[3.3]heptan-2-yl)methyl)-6-fluorobenzyl)amino)-2,6-difluoro-N-(thiazol-4-yl)benzenesulfonamide formate] | 0.064 | 6.51 |  | 23 |

More lines, main results first:

| IC50 (NaV1.6) [µM] | IC50 (NaV1.1) [µM] | Compound | IC50 (NaV1.5; [1]) [µM] | IC50 (NaV1.5) [µM] |
| --- | --- | --- | --- | --- |
| 0.299 | 0.303 | O=S(=O)(Nc1nccs1)c1cc(Cl)c(NC2CCCc3ncccc32)cc1F (stereo not drawn) [Example 98, 5-chloro-2-fluoro-4-((5,6,7,8-tetrahydroquinolin-5-yl)amino)-N-(thiazol-2-yl)benzenesulfonamide formate] | 11 |  |
| 0.373 | 1.94 | O=S(=O)(Nc1nccs1)c1ccc(NC(c2ccccc2)C2CC2)c(Cl)c1 (stereo not drawn) [Example 99, 3-chloro-4-((cyclopropyl(phenyl)methyl)amino)-N-(thiazol-2-yl)benzenesulfonamide] | 9.27 |  |
| 0.216 | 0.667 | O=S(=O)(Nc1nccs1)c1cc(Cl)c(NC(c2ccccc2)C2CC2)cc1F (stereo not drawn) [Example 100, 5-chloro-4-((cyclopropyl(phenyl)methyl)amino)-2-fluoro-N-(thiazol-2-yl)benzenesulfonamide] | 6.42 |  |
| 0.533 | 3.7 | O=S(=O)(Nc1nccs1)c1cc(Cl)c(NC2(c3cccc(F)c3)CCC2)cc1F [Example 106, 5-chloro-2-fluoro-4-((1-(3-fluorophenyl)cyclobutyl)amino)-N-(thiazol-2-yl)benzenesulfonamide] | 10.1 |  |
| 0.214 | 1.11 | CC(C)C[C@H](Nc1cc(F)c(S(=O)(=O)Nc2nccs2)cc1Cl)c1ccccc1 [Example 109, (S)-5-chloro-2-fluoro-4-((3-methyl-1-phenylbutyl)amino)-N-(thiazol-2-yl)benzenesulfonamide] | 7.86 |  |
| 0.352 | 1.39 | CCC[C@H](Nc1cc(F)c(S(=O)(=O)Nc2nccs2)cc1Cl)c1ccccc1 [Example 111, (S)-5-chloro-2-fluoro-4-((1-phenylbutyl)amino)-N-(thiazol-2-yl)benzenesulfonamide] | 8.33 |  |
| 0.114 | 0.147 | CC[C@H](Nc1cc(F)c(S(=O)(=O)Nc2nccs2)cc1C)c1ccccc1 [Example 126, (S)-2-fluoro-5-methyl-4-((1-phenylpropyl)amino)-N-(thiazol-2-yl)benzenesulfonamide] |  | 11.4 |
| 0.467 | 30 | O=S(=O)(Nc1ncccn1)c1c(F)cc(NCc2c(F)cccc2CN2CCC2)cc1F [Example 145, 4-((2-(azetidin-1-ylmethyl)-6-fluorobenzyl)amino)-2,6-difluoro-N-(pyrimidin-2-yl)benzenesulfonamide 2,2,2-trifluoroacetate] | 30 |  |
| 0.78 | 3.36 | C[C@H](Nc1ccc(S(=O)(=O)Nc2cscn2)c(F)c1Cl)c1c(F)cccc1F [Example 149, (S)-3-chloro-4-((1-(2,6-difluorophenyl)ethyl)amino)-2-fluoro-N-(thiazol-4-yl)benzenesulfonamide] | 6.39 |  |
| 0.16 | 10.3 | CCOC1(C)CN(Cc2cccc(F)c2CNc2cc(F)c(S(=O)(=O)Nc3cscn3)c(F)c2)C1 [Example 152, 4-((2-((3-ethoxy-3-methylazetidin-1-yl)methyl)-6-fluorobenzyl)amino)-2,6-difluoro-N-(thiazol-4-yl)benzenesulfonamide formate] | 19 |  |
| 0.451 | 28.8 | COC[C@H]1CCCN1Cc1cccc(F)c1CNc1cc(F)c(S(=O)(=O)Nc2cscn2)c(F)c1 [Example 154, (R)-2,6-difluoro-4-((2-fluoro-6-((2-(methoxymethyl)pyrrolidin-1-yl)methyl)benzyl)amino)-N-(thiazol-4-yl)benzenesulfonamide formate] | 30 |  |

Source: US11174268B2, “Benzenesulfonamide compouds and their use as therapeutic agents” (Xenon Pharmaceuticals Inc., priority 2016, dated 2021)
